From US20130064955A1, “NATURAL SWEETENED COMPOSITIONS AND METHODS FOR PREPARING THE SAME” (priority 2011, published 2013)
Entries after “also recorded” stand apart in the source; their conditions may differ.

Columns and labels:
human sense of taste [1] = experiment: Determination of sweetness recognition threshold concentration by trained taste tester; assay type: in vivo; settings: in water at room temperature
Method: The term “sweetness recognition threshold concentration,” as generally used herein, is the lowest known concentration of a sweet compound that is perceivable by the human sense of taste. The sweetness recognition threshold level is specific for a particular compound, and varies based on temperature, matrix, ingredients and/or flavor system. The sweetness recognition threshold concentrations measurements and 5% sucrose equivalence measurements described herein were determined in water at room temperature.
A sip (approximately 2-5 mL) of control sample, including but not limited to water, was tasted and swallowed by a trained taste tester. After allowing a 15-25 second interval to pass, a second sip of the control is tasted and swallowed. The taste properties of the control are determined and recorded by the trained taste tester. An unknown sample is then tasted and swallowed in the same manner, allowing a 15-25 second interval between the two sips. Preferably no more than ten additives are tested per day to avoid taste fatigue. Each sample was taken at least 1.5 hours following eating or drinking The sweetness recognition thresholds concentration of 21 steviol glycosides were determined in this manner, and are shown in Table 1.

human sense of taste [2] = experiment: Sugar-like taste quality enhancement of Stevia sweeteners by steviol glycoside additives, taste test by trained individual; assay type: in vivo; settings: for Taste change of Stevia Sweetener REBA (303 ppm) with Steviol Glycoside Additive / Taste change of Stevia Sweetener JSS (380 ppm) with Steviol Glycoside Additive / Taste change of Stevia Sweetener REBD (303 ppm) with Steviol Glycoside Additive: additive at or below its sweetness recognition threshold concentration, 5% sucrose equivalence, water, room temperature; for Taste change of Stevia Sweetener REBA (303 ppm) with Steviol Glycoside Additive: 97% pure rebaudioside A 303 ppm; for Taste change of Stevia Sweetener REBD (303 ppm) with Steviol Glycoside Additive: rebaudioside D 303 ppm;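 on Taste change of Stevia Sweetener JSS (380 ppm) with Steviol Glycoside Additive: code −B means less bitterness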
Method: A steviol glycoside is added in an amount at or below sweetness recognition threshold concentration to a solution of water and a Stevia sweetener. The solution is maintained at room temperature. Each sample is taste tested by a trained individual, as described in Example 1, in duplicate. Preferably no more than ten steviol glycosides are tested per day to avoid taste fatigue. Each sample was taken at least 1.5 hours following eating or drinking
The Stevia sweeteners used in this study were 97% pure rebaudioside A, JSS, and rebaudioside D.
The steviol glycosides were used in at or below sweetness recognition threshold concentrations. […]

[3] = additive at 500 ppm, all three control 5% SE Stevia sweeteners

Row | Compound | minimal effective concentration (human sense of taste [1]; Homo sapiens, read-out: Sweetness recognition threshold Level) | bitterness, sweet lingering, off-taste note (human sense of taste [2]; [3]) | slightly sweeter profile (increase in sucrose equivalence) (human sense of taste [2]; [3]) | sugar-like tasting quality enhancement (human sense of taste [2]; [3]) | Taste change of Stevia Sweetener REBA (303 ppm) with Steviol Glycoside Additive (human sense of taste [2]) | Taste change of Stevia Sweetener JSS (380 ppm) with Steviol Glycoside Additive (human sense of taste [2]) | Taste change of Stevia Sweetener REBD (303 ppm) with Steviol Glycoside Additive (human sense of taste [2]) | Sweetness recognition threshold Level (human sense of taste [1]) | Sweetness recognition threshold Level (human sense of taste [1]; listed as rebaudioside A)
1 | C[C@@]12CCC[C@@](C)(C(=O)O)[C@H]1CC[C@@]13C[C@@](OC4OC(CO)C(O)C(OC5OC(CO)C(O)C(O)C5O)C4OC4OC(CO)C(O)C(O)C4O)(CC[C@H]12)[C@](C)(O)C3 (stereo partly shown) [Compound 1] | 500 µg/mL | no bitterness, sweet lingering or off-taste note | ca. 1 % SE | significantly enhanced all three control 5% SE Stevia sweeteners to a much superior sugar-like tasting quality | ++, ASLC,; also recorded: +S, −B | ++, ASLC,; also recorded: +S, −B | ++, ASLC,; also recorded: +S, −B |  | 
2 | rebaudioside B |  |  |  |  | N (N: no difference in presence or absence of steviol glycoside additive;) | N (N: no difference in presence or absence of steviol glycoside additive;) | N (N: no difference in presence or absence of steviol glycoside additive;) | 25 ppm | 
3 | rebaudioside C |  |  |  |  | N (N: no difference in presence or absence of steviol glycoside additive;) | N (N: no difference in presence or absence of steviol glycoside additive;) | N (N: no difference in presence or absence of steviol glycoside additive;) | 100 ppm | 
4 | C=C1C[C@@]23CC[C@H]4[C@@](C)(CCC[C@@]4(C)C(=O)O[C@@H]4O[C@H](CO)[C@@H](O)[C@H](O)[C@H]4O)[C@@H]2CC[C@]1(O[C@@H]1O[C@H](CO)[C@@H](O)[C@H](O[C@@H]2O[C@H](CO)[C@@H](O)[C@H](O)[C@H]2O)[C@H]1O[C@@H]1O[C@H](CO)[C@@H](O)[C@H](O)[C@H]1O)C3 [Rebaudioside A, rebaudioside A] |  |  |  |  |  | N (N: no difference in presence or absence of steviol glycoside additive;) | N (N: no difference in presence or absence of steviol glycoside additive;) | 12.6 ppm | about 12.6 ppm
